Structures are written as SMILES.

These results are taken from article PMC6962712, “Glucose-6-Phosphate Upregulates Txnip Expression by Interacting With MondoA” (Frontiers in Molecular Biosciences, 2020).

This assay has as its target T1, MondoA/Mlx (Homo sapiens, UniProt Q9HAP2).
T1 construct: gene MLXIP; endogenous full-length MondoA/Mlx heterodimer in nuclear extract of Bcap37 cells, not purified; with Max-like protein X
T1 sequence (Q9HAP2 2-919): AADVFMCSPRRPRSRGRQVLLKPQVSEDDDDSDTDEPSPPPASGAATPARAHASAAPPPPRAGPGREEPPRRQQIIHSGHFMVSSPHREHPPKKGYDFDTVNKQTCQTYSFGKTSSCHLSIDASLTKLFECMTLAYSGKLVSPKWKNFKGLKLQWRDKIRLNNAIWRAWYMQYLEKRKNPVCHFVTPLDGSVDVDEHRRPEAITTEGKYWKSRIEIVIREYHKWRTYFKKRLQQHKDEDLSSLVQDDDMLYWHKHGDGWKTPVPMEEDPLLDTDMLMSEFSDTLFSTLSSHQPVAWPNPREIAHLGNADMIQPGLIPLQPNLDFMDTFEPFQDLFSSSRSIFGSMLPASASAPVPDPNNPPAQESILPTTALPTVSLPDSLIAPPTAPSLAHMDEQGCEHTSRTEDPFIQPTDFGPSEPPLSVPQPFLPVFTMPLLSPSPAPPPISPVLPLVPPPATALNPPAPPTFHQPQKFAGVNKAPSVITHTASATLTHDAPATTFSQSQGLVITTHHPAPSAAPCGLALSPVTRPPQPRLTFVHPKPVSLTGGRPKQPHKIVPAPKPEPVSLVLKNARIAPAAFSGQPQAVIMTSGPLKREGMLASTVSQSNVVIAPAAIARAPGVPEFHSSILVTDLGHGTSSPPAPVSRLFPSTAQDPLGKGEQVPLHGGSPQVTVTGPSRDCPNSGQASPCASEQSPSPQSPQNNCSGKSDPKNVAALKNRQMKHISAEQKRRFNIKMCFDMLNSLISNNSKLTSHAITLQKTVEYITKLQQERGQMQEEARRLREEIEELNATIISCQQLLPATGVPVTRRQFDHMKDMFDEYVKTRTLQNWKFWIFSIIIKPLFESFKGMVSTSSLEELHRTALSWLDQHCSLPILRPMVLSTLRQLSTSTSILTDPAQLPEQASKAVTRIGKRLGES
T1 sequence (Q9UH92 1-298 partner): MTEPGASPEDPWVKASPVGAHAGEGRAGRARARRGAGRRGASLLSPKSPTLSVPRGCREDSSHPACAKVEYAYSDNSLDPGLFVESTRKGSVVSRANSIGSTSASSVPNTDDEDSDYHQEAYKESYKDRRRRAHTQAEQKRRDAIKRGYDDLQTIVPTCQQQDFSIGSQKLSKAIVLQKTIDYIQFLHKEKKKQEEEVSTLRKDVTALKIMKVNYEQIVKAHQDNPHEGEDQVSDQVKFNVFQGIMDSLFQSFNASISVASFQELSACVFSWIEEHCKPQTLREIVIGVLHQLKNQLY
The assay can be described thus: EMSA, biotinylated Txnip ChoRE probe. Format: biochemical. The settings on record: Bcap37 nuclear extract; G6PNa2 added in vitro (e.g. 0.05 and 0.25 mM); activator of promoter binding; indirect read-out, not a direct binding test.

Take `O=P(O)(O)OC[C@H]1OC(O)[C@H](O)[C@@H](O)[C@@H]1O` (stereo partly shown) [G6PNa2]: the “EMSA, biotinylated Txnip ChoRE probe” value was “binding of MondoA to the promoter probe was significantly promoted by the activation of G6PNa2”.
